Laboratory results from US12351652B2, “Hemagglutinin-binding peptide” (priority 2019, dated 2025).
*1 amine or outer side, *2 acyl side, *3 side chain or, on linkers, in order; H or OH if unused. Where a SMILES comes first, the peptide text is derived from it. Bridges are numbered along the chain shown (N, C = ends). [ ]: non-standard residue; d: D form. The star is where a group is joined. Ethylenediamine = C(CN[*:2])N[*:1]; Hyp = O=C(O)[C@@H]1C[C@@H](O)CN1; NMeF = CN[C@@H](Cc1ccccc1)C(=O)O; Decanoyl = CCCCCCCCCC(=O)*; NMeA = CN[C@@H](C)C(=O)O; Sar = CNCC(=O)O

Experiments:
[1] = system: influenza virus A/Puerto Rico/8/34 (H1N1); type: cell-based
[2] = system: influenza virus A/Nagasaki/HA-58/2009 (H1N1); type: cell-based
[3] = system: influenza virus A/Puerto Rico/8/34 (H1N1); design: species or system BALB/cA Jcl [SPF] mice; details: mouse
[4] = system: influenza virus A/Duck/Pennsylvania/84 (H5N2); type: cell-based

CCCCCCCCCC(=O)NCCNC(=O)[C@@H]1CSCC(=O)N[C@@H](Cc2c[nH]c3ccccc23)C(=O)N[C@@H]([C@@H](C)O)C(=O)N(C)CC(=O)N[C@@H](CC(=O)O)C(=O)N(C)[C@@H](Cc2ccccc2)C(=O)N(C)[C@@H](Cc2ccccc2)C(=O)N[C@@H](C)C(=O)N(C)[C@@H](C)C(=O)N[C@@H](Cc2cnc[nH]2)C(=O)N[C@@H](Cc2ccc(O)cc2)C(=O)N[C@@H]([C@@H](C)O)C(=O)N[C@@H](C(C)C)C(=O)N2C[C@H](O)C[C@H]2C(=O)N[C@@H](C)C(=O)N1 [HA152] ({CH2CO}-WT[Sar]D[NMeF][NMeF]A[NMeA]HYTV[Hyp]AC-{Ethylenediamine-Decanoyl}; thioether N-15)
inhibition of cell death in low concentration range [1]: remarkable inhibition of cell death
inhibition of cell death in low concentration range [2]: remarkable inhibition of cell death
in vivo anti-virus activity compared to peramivir [3]: comparable or superior to peramivir
survival rate ([3]; in vivo, iv): 60%
inhibition of cell death in low concentration range [4]: remarkable inhibition of cell death
